From patent US8134015B2, “Compound inhibiting in vivo phosphorous transport and medicine containing the same” (Kyowa Hakko Kirin Co., Ltd., priority 2003, dated 2012)

These compounds were tested against T1, rat NaPi-2b (Rattus norvegicus, UniProt Q9JJ09) (assay: Sodium-dependent phosphate uptake of Xenopus oocytes which expressed NaPi-2b (32P)). Conditions: Xenopus oocytes expressing rat NaPi-2b, 32P radioactive phosphorus; read-out: IC50 (phosphate uptake inhibitory activity).
T1 construct: expressed in transfected cells; host or cells: Xenopus oocytes injected with cRNA
T1 sequence (Q9JJ09 1-695): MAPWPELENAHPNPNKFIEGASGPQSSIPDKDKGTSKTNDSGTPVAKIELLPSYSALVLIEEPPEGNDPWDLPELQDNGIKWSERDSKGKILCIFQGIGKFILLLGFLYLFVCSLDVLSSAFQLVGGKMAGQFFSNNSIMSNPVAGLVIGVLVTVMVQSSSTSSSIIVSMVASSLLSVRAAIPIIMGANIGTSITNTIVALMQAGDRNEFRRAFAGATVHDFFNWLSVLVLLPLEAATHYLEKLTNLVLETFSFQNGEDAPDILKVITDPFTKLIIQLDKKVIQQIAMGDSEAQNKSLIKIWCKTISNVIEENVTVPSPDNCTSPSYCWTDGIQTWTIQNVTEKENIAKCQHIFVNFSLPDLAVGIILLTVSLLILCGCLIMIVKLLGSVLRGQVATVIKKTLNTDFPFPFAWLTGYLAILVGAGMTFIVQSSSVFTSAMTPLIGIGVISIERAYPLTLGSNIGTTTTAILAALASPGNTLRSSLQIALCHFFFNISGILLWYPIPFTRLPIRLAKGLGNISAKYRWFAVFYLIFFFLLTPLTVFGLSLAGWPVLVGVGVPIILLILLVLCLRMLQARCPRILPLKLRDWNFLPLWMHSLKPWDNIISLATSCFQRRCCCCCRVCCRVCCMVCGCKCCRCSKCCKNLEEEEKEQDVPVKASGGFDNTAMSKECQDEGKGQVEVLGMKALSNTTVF
Assay type: cell-based
Method in brief: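 Rat NaPi-2b cloned from small-intestine cDNA; cRNA injected into Xenopus oocytes, expression for 2 days. Phosphate uptake inhibition measured with 32P; percent inhibition at 300 μM and 100 μM read from the same inhibition curve.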

Q: For CC(O)CN(Cc1cccc(C(=O)Nc2sccc2C(=O)N/N=C/c2cccc(F)c2)c1)CC(C)O (stereo not drawn) [Compound 673, 3-{[Bis-(2-hydroxy-propyl)-amino]-methyl}-N-[3-(3-fluoro-benzylidene-hydrazinocarbonyl)-thiophen-2-yl]-benzamide], which IC50 is on record?
A: 10.1 µM

Q: For CCN(CC)CCN(C)Cc1cccc(-c2nc3sc4c(c3c(=O)n2/N=C/c2ccc(OC)cc2)CCCC4)c1 [Compound 675, 2-(3-{[(2-Diethylamino-ethyl)-methyl-amino]-methyl}-phenyl)-3-[(4-methoxy-benzylidene-)-amino]-5,6,7,8-tetrahydro-3H-benzo[4,5]thieno[2,3-d]pyrimidin-4-one], which IC50 is on record?
A: < 3 µM

Q: How did the IC50 turn out when Cc1ccc(/C=N/NC(=O)c2cc(Br)ccc2NC(=O)c2cccc(CS(=O)(=O)CCO)c2)cc1 [Compound 676, N-[4-Bromo-2-(4-methyl-benzylidene-hydrazinocarbonyl)-phenyl]-3-(2-hydroxy-ethanesulfonylmethyl)-benzamide] was run?
A: < 3 µM

Q: For Cc1ccc(/C=N/NC(=O)c2cc(Br)ccc2NC(=O)c2cccc(C[S+]([O-])CCO)c2)cc1 (stereo not drawn) [Compound 677, N-[4-Bromo-2-(4-methyl-benzylidene-hydrazinocarbonyl)-phenyl]-3-(2-hydroxy-ethanesulfinylmethyl)-benzamide], which IC50 is on record?
A: < 3 µM

Q: With O=C(Nc1ccc(Br)cc1C(=O)N/N=C/c1ccc(Cl)c(C(F)(F)F)c1)c1cccc(CS(=O)(=O)CCO)c1 [Compound 678, N-[4-Bromo-2-(4-chloro-3-trifluoromethyl-benzylidene-hydrazinocarbonyl)-phenyl]-3-(2-hydroxy-ethanesulfonylmethyl)-benzamide] as the compound, how does the IC50 read?
A: < 3 µM

Q: Which IC50 does the source give for O=C(Nc1ccc(Br)cc1C(=O)N/N=C/c1ccc(Cl)c(C(F)(F)F)c1)c1cccc(C[S+]([O-])CCO)c1 (stereo not drawn) [Compound 679, N-[4-Bromo-2-(4-chloro-3-trifluoromethyl-benzylidene-hydrazinocarbonyl)-phenyl]-3-(2-hydroxy-ethanesulfinylmethyl)-benzamide] here?
A: < 3 µM

Q: How did the IC50 turn out when O=C(Nc1ccc(Cl)cc1C(=O)N/N=C/c1cccc(F)c1)c1cccc(CSCc2ccco2)c1 [Compound 680, N-[4-Chloro-2-(3-fluoro-benzylidene-hydrazinocarbonyl)-phenyl]-3-(furan-2-ylmethylsulfanylmethyl)-benzamide] was run?
A: 4.04 µM

Q: For O=C(Nc1ccc(Cl)cc1C(=O)N/N=C/c1ccc(F)cc1)c1cccc(CSCc2ccco2)c1 [Compound 681, N-[4-Chloro-2-(4-fluoro-benzylidene-hydrazinocarbonyl)-phenyl]-3-(furan-2-ylmethylsulfanylmethyl)-benzamide], which IC50 is on record?
A: 25.9 µM

Q: With Cc1ccc(/C=N/NC(=O)c2cc(Cl)ccc2NC(=O)c2cccc(CSCc3ccco3)c2)cc1 [Compound 682, N-[4-Chloro-2-(4-methyl-benzylidene-hydrazinocarbonyl)-phenyl]-3-(furan-2-ylmethylsulfanylmethyl)-benzamide] as the compound, how does the IC50 read?
A: 12.5 µM

Q: Cc1ccc(/C=N/NC(=O)c2cc(Cl)ccc2NC(=O)c2cccc(CSCc3ccco3)c2)cc1C [Compound 683, N-[4-Chloro-2-(3,4-dimethyl-benzylidene-hydrazinocarbonyl)-phenyl]-3-(furan-2-ylmethylsulfanylmethyl)-benzamide] was tested. Which IC50 did it give?
A: < 3 µM

Q: For Cc1ccc(/C=N/NC(=O)c2cc(Cl)ccc2NC(=O)c2cccc(CN(C)CCCN(C)Cc3cccc(C(=O)Nc4ccc(Cl)cc4C(=O)N/N=C/c4ccc(C)c(C)c4)c3)c2)cc1C [Compound 684, N1-[4-Chloro-2-({2-[(E)-1-(3,4-dimethylphenyl)methylidene]hydrazino}carbonyl}phenyl}-3-{[{3-[(3-{[4-chloro-2-({2-[(E)-1-(3,4-dimethylphenyl)methylidene]hydrazino}carbonyl}anilino}carbonyl}benzyl}(methyl)amino)propyl](methyl)amino)methyl)benzamide], which IC50 is on record?
A: 54.3 µM

Q: With CN(CCCN(C)Cc1cccc(C(=O)Nc2ccc(Cl)cc2C(=O)N/N=C/c2cccc(F)c2)c1)Cc1cccc(C(=O)Nc2ccc(Cl)cc2C(=O)N/N=C/c2cccc(F)c2)c1 [Compound 685, N1-[4-Chloro-2-({2-[(E)-1-(3-fluorophenyl)methylidene]hydrazino}carbonyl}phenyl}-3-{[{3-[(3-{[4-chloro-2-({2-[(E)-1-(3-fluorophenyl)methylidene]hydrazino}carbonyl}-anilino}carbonyl}benzyl}(methyl)amino)propyl)(methyl)amino]methyl]-benzamide] as the compound, how does the IC50 read?
A: 36.4 µM

Q: With Cc1ccc(/C=N/NC(=O)c2cc(Cl)ccc2NC(=O)c2cccc(CS(=O)(=O)Cc3ccco3)c2)cc1C [Compound 686, N-[4-Chloro-2-(3,4-dimethyl-benzylidene-hydrazinocarbonyl)-phenyl]-3-(furan-2-ylmethanesulfonylmethyl)-benzamide] as the compound, how does the IC50 read?
A: < 3 µM

Q: How did the IC50 turn out when Cc1ccc(/C=N/NC(=O)c2cc(Cl)ccc2NC(=O)c2cccc(C[S+]([O-])Cc3ccco3)c2)cc1C (stereo not drawn) [Compound 687, N-[4-Chloro-2-(3,4-dimethyl-benzylidene-hydrazinocarbonyl)-phenyl]-3-(furan-2-ylmethanesulfinylmethyl)-benzamide] was run?
A: < 3 µM

Q: For O=C(Nc1ccc(Cl)cc1C(=O)N/N=C/c1ccc(Cl)c(C(F)(F)F)c1)c1cccc(CS(=O)(=O)Cc2ccco2)c1 [Compound 688, N-[4-Chloro-2-(4-chloro-3-trifluoromethyl-benzylidene-hydrazinocarbonyl)-phenyl]-3-(furan-2-ylmethanesulfonylmethyl)-benzamide], which IC50 is on record?
A: < 3 µM

Q: O=C(Nc1ccc(Cl)cc1C(=O)N/N=C/c1ccc(Cl)c(C(F)(F)F)c1)c1cccc(C[S+]([O-])Cc2ccco2)c1 (stereo not drawn) [Compound 689, N-[4-Chloro-2-(4-chloro-3-trifluoromethyl-benzylidene-hydrazinocarbonyl)-phenyl]-3-(furan-2-ylmethanesulfinylmethyl)-benzamide] was tested. Which IC50 did it give?
A: < 3 µM

Q: Which IC50 does the source give for CN(CCCCCCN(C)Cc1cccc(C(=O)Nc2ccc(Cl)cc2C(=O)N/N=C/c2ccc(Cl)c(C(F)(F)F)c2)c1)Cc1cccc(C(=O)Nc2ccc(Cl)cc2C(=O)N/N=C/c2ccc(Cl)c(C(F)(F)F)c2)c1 [Compound 690, N1-[4-Chloro-2-({2-[(E)-1-(4-chloro-3-trifluoromethyl-phenyl)methylidene]hydrazino}carbonyl)phenyl)-3-{[{6-[(3-{[4-chloro-2-({2-[(E)-1-(4-chloro-3-trifluoromethyl-phenyl)methylidene]hydrazino}-carbonyl}anilino}carbonyl}benzyl}(methyl)amino)hexyl)(methyl)amino]-methyl]benzamide] here?
A: 88 µM

Q: How did the IC50 turn out when O=C(Nc1ccc(Cl)cc1C(=O)N/N=C/c1cccc(F)c1)c1cccc(CSCCS(=O)(=O)O)c1 [Compound 691, 2-{3-[4-Chloro-2-(3-fluoro-benzylidene-hydrazinocarbonyl)-phenylcarbamoyl]-benzylsulfanyl}-ethanesulfonic acid] was run?
A: 97 µM

Q: Which IC50 does the source give for Cc1cccc(/C=N/NC(=O)c2cc(Cl)ccc2NC(=O)c2cccc(CSCCS(=O)(=O)O)c2)c1 [Compound 692, 2-{3-[4-Chloro-2-(3-methyl-benzylidene-hydrazinocarbonyl)-phenylcarbamoyl]-benzylsulfanyl}-ethanesulfonic acid] here?
A: 99.4 µM

Q: With Cc1ccc(/C=N/NC(=O)c2cc(Cl)ccc2NC(=O)c2cccc(CSCCS(=O)(=O)O)c2)cc1 [Compound 693, 2-{3-[4-Chloro-2-(4-methyl-benzylidene-hydrazinocarbonyl)-phenylcarbamoyl]-benzylsulfanyl}-ethanesulfonic acid] as the compound, how does the IC50 read?
A: 70.2 µM

Q: With Cc1ccc(/C=N/NC(=O)c2cc(Cl)ccc2NC(=O)c2cccc(CSCCS(=O)(=O)O)c2)cc1C [Compound 694, 2-{3-[4-Chloro-2-(3,4-dimethyl-benzylidene-hydrazinocarbonyl)-phenylcarbamoyl]-benzylsulfanyl}-ethanesulfonic acid] as the compound, how does the IC50 read?
A: 38.8 µM

Q: O=c1c2cc(Br)ccc2nc(-c2cccc(CSCCO)c2)n1/N=C/c1ccc(F)cc1 [Compound 695, 6-Bromo-3-[(4-fluoro-benzylidene-)-amino]-2-[3-(2-hydroxy-ethylsulfanylmethyl)-phenyl]-3H-quinazolin-4-one] was tested. Which IC50 did it give?
A: 6.76 µM

Q: With Cc1ccc(/C=N/n2c(-c3cccc(CSCCO)c3)nc3ccc(Br)cc3c2=O)cc1 [Compound 696, 6-Bromo-2-[3-(2-hydroxy-ethylsulfanylmethyl)-phenyl]-3-[(4-methyl-benzylidene-)-amino]-3H-quinazolin-4-one] as the compound, how does the IC50 read?
A: 4.47 µM

Same assay, conditions: phosphate uptake, oocytes expressing rat NaPi-2b; 300 μM, determined from inhibition curve

Q: With CCN(CC)CCN(C)Cc1cccc(-c2nc3sc4c(c3c(=O)n2/N=C/c2ccc(Cl)c(C(F)(F)F)c2)CCCC4)c1 [Compound 674, 3-[(4-Chloro-3-trifluoromethyl-benzylidene)-amino]-2-(3-{[(2-diethylamino-ethyl)-methyl-amino]-methyl}-phenyl)-5,6,7,8-tetrahydro-3H-benzo[4,5]thieno[2,3-d]pyrimidin-4-one] as the compound, how does the inhibition at 300 µM read?
A: 85.1%
